Test systems include A549 NSCLC; HCT-15 colon; MALME-3M melanoma; NCI-H460 lung; SK-MEL-28 melanoma; SNB-19 CNS; UO-31 renal; CAKI-1 renal; MDA-MB-231 breast.
Holding throughout (assay): growth of human tumour cells (NCI), 48 h

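Method: 48-hour compound exposure of cells in 96-well plates, five concentrations, linear interpolation of endpoints. GI50 marks 50% less growth. Definition used: TGI = concentration required for complete inhibition of growth.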

With `Cc1cccc2c1NC(c1c(C)[nH]c3ccccc13)C2` (configuration not stated), the TGI in the experiment on A549 NSCLC, in the experiment on HCT-15 colon, in the experiment on MALME-3M melanoma, in the experiment on NCI-H460 lung, with SK-MEL-28 melanoma and with SNB-19 CNS was greater than 100 µM throughout. The same compound showed a TGI with UO-31 renal greater than 100 µM.
For the compound `COc1ccc(OC)c(-c2cc(-c3ccc(Cl)cc3)nn2-c2ccc(S(N)(=O)=O)cc2)c1`, the GI50 in the experiment with A549 NSCLC is 7.84 µM; with CAKI-1 renal, 11.2 µM; in the experiment on HCT-15 colon, 2.84 µM; in the experiment with MDA-MB-231 breast, 6.05 µM; in the experiment on NCI-H460 lung, 10.6 µM; with UO-31 renal, 21.8 µM. The TGI was 51.9 µM with A549 NSCLC; 29.3 µM in the experiment with CAKI-1 renal; 10.7 µM in the experiment with HCT-15 colon; 19 µM with MDA-MB-231 breast; 93 µM with NCI-H460 lung; greater than 100 µM in the experiment on UO-31 renal.
For the compound `O=C1/C=C(/c2ccc(O)cc2)[C@H](O)Cc2ccc(OC3OC(CO)C(O)C(O)C3O)cc2O1` (some centres not stated) (tested in a mixture with another compound), the TGI in the experiment on A549 NSCLC, in the experiment with CAKI-1 renal, in the experiment on HCT-15 colon, in the experiment with MALME-3M melanoma, in the experiment on NCI-H460 lung and in the experiment with SNB-19 CNS was greater than 100 µM each time. Further, the TGI in the experiment on UO-31 renal was greater than 100 µM.
`COC(=O)c1ccc2n[se]nc2c1`: the TGI in the experiment on A549 NSCLC, with CAKI-1 renal, in the experiment with HCT-15 colon, in the experiment on MALME-3M melanoma, in the experiment on NCI-H460 lung and in the experiment with SK-MEL-28 melanoma was greater than 100 µM in each case. Also, the TGI with SNB-19 CNS and in the experiment on UO-31 renal was greater than 100 µM in each case.
With `O=C(N/C(=C\c1cc(Cl)ccc1Cl)c1nc2ccccc2[nH]1)c1ccccc1`, the TGI with A549 NSCLC is greater than 100 µM; in the experiment on CAKI-1 renal, greater than 100 µM; in the experiment on HCT-15 colon, 71.9 µM; in the experiment on MALME-3M melanoma, greater than 100 µM; in the experiment with SK-MEL-28 melanoma, greater than 100 µM; in the experiment on SNB-19 CNS, greater than 100 µM. For the same compound, the TGI in the experiment with UO-31 renal was determined as 62.7 µM.
On to `COc1cc2c3c(c1OC)C1(C=CC(=O)C=C1)CC3N(C(=O)OC(C)(C)C(Cl)(Cl)Cl)CC2` (configuration not stated), for which the TGI in the experiment on A549 NSCLC is 49.4 µM; with CAKI-1 renal, 50.9 µM; with HCT-15 colon, 23.6 µM; in the experiment on MALME-3M melanoma, 27.2 µM; in the experiment with NCI-H460 lung it was 30.8 µM; with SNB-19 CNS it was 32.2 µM. Moreover, in the experiment on UO-31 renal, the TGI turned out to be 28.5 µM.
For `CC(C)(C)NC(=O)C12C3C4C1C1C2C3C41I` (configuration not stated), the TGI with A549 NSCLC, with CAKI-1 renal, in the experiment on HCT-15 colon, in the experiment with MALME-3M melanoma, in the experiment with NCI-H460 lung and in the experiment on SK-MEL-28 melanoma was greater than 100 µM each time. In addition, the TGI with SNB-19 CNS and in the experiment with UO-31 renal was greater than 100 µM in each case.
On to `COC1=C(C(=O)OC(C)(C)C)C23CCCCC2(C(C(=O)OC(C)(C)C)=C(OC)C3C(=O)OC(C)(C)C)C1C(=O)OC(C)(C)C` (configuration not stated), for which the TGI with A549 NSCLC, in the experiment on CAKI-1 renal, with HCT-15 colon, in the experiment on MALME-3M melanoma, with NCI-H460 lung and with SNB-19 CNS was greater than 100 µM each time. Also, the TGI with UO-31 renal was greater than 100 µM.
Take `Clc1cc(Cl)c2n[se]nc2c1`: the TGI in the experiment with A549 NSCLC, in the experiment with CAKI-1 renal, in the experiment with HCT-15 colon, with MALME-3M melanoma, in the experiment on NCI-H460 lung and in the experiment on SK-MEL-28 melanoma was greater than 100 µM throughout. Also, the TGI in the experiment with SNB-19 CNS and in the experiment on UO-31 renal was greater than 100 µM each time.
Turning to `COc1cc(C=C2C(=O)OC(C)(C)OC2=O)cc(OC)c1OC`, the TGI in the experiment with A549 NSCLC, with CAKI-1 renal, in the experiment with HCT-15 colon, in the experiment with MALME-3M melanoma, in the experiment with NCI-H460 lung and in the experiment on SK-MEL-28 melanoma was greater than 100 µM each time. Besides, the TGI with SNB-19 CNS and in the experiment with UO-31 renal was greater than 100 µM each time.
As to `CC(=O)NC1=NC(=O)/C(=C/c2ccc(Cl)cc2Cl)N1C`, the TGI with A549 NSCLC, in the experiment on CAKI-1 renal, in the experiment with HCT-15 colon, in the experiment on MDA-MB-231 breast, in the experiment with NCI-H460 lung and with SNB-19 CNS was greater than 100 µM in each case. Further, in the experiment on UO-31 renal, the TGI is greater than 100 µM.
Consider `CC(C)CCC[C@@H](C)C1CCC2[C@@H]3CC=C4C[C@@H](OC(=O)CCC(=O)NCC[N+](C)(C)CCCS(=O)(=O)[O-])CC[C@]4(C)C3CC[C@@]21C` (some centres not stated), for which the TGI in the experiment with A549 NSCLC is 37.8 µM; with CAKI-1 renal, greater than 100 µM; with HCT-15 colon it was 29.5 µM; in the experiment on MALME-3M melanoma, 43.7 µM; in the experiment with NCI-H460 lung it was 30.9 µM; with SK-MEL-28 melanoma it was 32.9 µM. Further, the TGI is 44.7 µM in the experiment on SNB-19 CNS and greater than 100 µM in the experiment on UO-31 renal.
For the compound `CCCCCCCCOCC(O)COC` (configuration not stated), the TGI with A549 NSCLC, with CAKI-1 renal, in the experiment with HCT-15 colon, in the experiment with MALME-3M melanoma, in the experiment with NCI-H460 lung and in the experiment with SK-MEL-28 melanoma was greater than 100 µM in each case. The TGI with SNB-19 CNS and in the experiment with UO-31 renal was greater than 100 µM each time.
In the case of `Nc1ccc(Cl)cc1.Nc1ccc(Cl)cc1.Nc1ccc(Cl)cc1.O=C([O-])C(=O)[O-].O=C([O-])C(=O)[O-].[H+].[Ru+5]`, the GI50 with A549 NSCLC was 0.351 µM; with NCI-H460 lung, 1.05 µM; in the experiment on SNB-19 CNS, 31.4 µM; in the experiment on UO-31 renal it was 0.927 µM. For the same compound, the TGI in the experiment with A549 NSCLC, with CAKI-1 renal, in the experiment with HCT-15 colon, with MALME-3M melanoma, in the experiment on NCI-H460 lung and with SK-MEL-28 melanoma was greater than 100 µM in each case. Also, the TGI in the experiment with SNB-19 CNS was greater than 100 µM; in the experiment with UO-31 renal it was greater than 26.8 µM.
With `COc1ccc(/C=N\N2C(=O)Cc3ccccc32)cc1`, the TGI with A549 NSCLC, in the experiment with CAKI-1 renal, in the experiment with HCT-15 colon, in the experiment with MALME-3M melanoma, in the experiment on NCI-H460 lung and in the experiment with SK-MEL-28 melanoma was greater than 100 µM throughout. Moreover, the TGI in the experiment on SNB-19 CNS and in the experiment with UO-31 renal was greater than 100 µM in each case.

Source of the values: PubChem BioAssay (NCI).
